Tested on: primary human hepatocytes (PHH)
Assay: LipocyteProfiler of drug-treated primary human hepatocytes
Format: cell-based
Settings: for appearance of the cytoskeleton, Golgi and plasma membrane (AGP Texture_AngularSecondMoment): 5 mM metformin for 24h vs control, p=9.96e-08
Method: Primary human hepatocytes (PHH) were purchased from BioIVT. Donor lot YNZ was used in this study. PHH were thawed and immediately resuspended in CP media (BioIVT) supplemented with torpedo antibiotic (BioIVT). Cell count and viability were assessed by trypan blue exclusion test prior to plating. […] Four hours after plating, media was replaced with fresh CP media. After 24 h, media was replaced with fresh CP media or CP media containing oleic acid (0.3 mM) or metformin (5 mM). Hepatocytes were incubated for an additional 24 h prior to processing. Human primary AMSCs and PHH were plated in 96-well CellCarrier plates (Perkinelmer #6005550). […] Primary human hepatocytes were stained after 48 h in culture, and 24h following treatment with oleic acid or metformin. On the respective day of the assay, cell culture media was removed and replaced by 0.5 μM Mitotracker staining solution (1 mM MitoTracker Deep Red stock (Invitrogen #M22426) diluted in culture media) to each well followed by 30 minutes incubation at 37° C.' protected from light. […] PFA was removed and cells were washed once with Hank's Balanced Salt Solution (1×), HBSS (Gibco #14025076). […] Finally, staining solution was removed and cells were washed three times with HBSS. Cells were imaged using a Opera Phenix High content screening system. […] Prior to processing, flat field illumination correction was performed using functions generated from the median intensity across each plate. Nuclei were identified using the DAPI stain and then expanded to identify whole cells using the Phalloidin/WGA and BODIPY stains. Regions of cytoplasm were then determined by removing the Nuclei from the Cell segmentations. Speckles of BODIPY staining were enhanced to assist in detection of small and large individual Lipid objects. For each object set measurements were collected representing size, shape, intensity, granularity, texture, colocalization and distance to neighbouring objects. After LipocyteProfiler (LP) feature extraction data was filtered by applying automated and manual quality control steps. […] Second, every field was assessed visually and fields that were corrupted by experimental induced technical artifacts were removed. Furthermore, blocklisted features (Way, Gregory (2019): Blocklist Features-Cell Profiler. figshare. […] After filtering data were normalised per plate using a robust scaling approach (Pedregosa et al. 2011) that subtracts the median from each variable and divides it by the interquartile range. Individual wells were aggregated for downstream analysis by cell depot and day of differentiation.

[1] = PHH metformin treatment (5 mM, 24h), t-test

Work on `CN(C)C(=N)N=C(N)N` [metformin] yielded a Nuclei_Intensity_IntegratedIntensityEdge_AGP t-statistics [1] of −8.2E+00, a Nuclei_Intensity_IntegratedIntensityEdge_DNA t-statistics [1] of −1.8E+01 and a Nuclei_Intensity_IntegratedIntensityEdge_Mito t-statistics [1] of 5.3E+00. For the same molecule, the Nuclei_Intensity_IntegratedIntensity_DNA t-statistics [1] was −1.3E+01, the Nuclei_Intensity_IntegratedIntensity_Lipid t-statistics [1] was −5.7E+00 and the Nuclei_Intensity_IntegratedIntensity_Mito t-statistics [1] was 7.3E+00. It also gave a Nuclei_Intensity_LowerQuartileIntensity_AGP t-statistics [1] of −1.4E+01, a Nuclei_Intensity_LowerQuartileIntensity_DNA t-statistics [1] of −1.9E+01 and a Nuclei_Intensity_LowerQuartileIntensity_Lipid t-statistics [1] of −5.4E+00. The Nuclei_Intensity_LowerQuartileIntensity_Mito t-statistics [1] was 7.7E+00, the Nuclei_Intensity_MADIntensity_AGP t-statistics [1] was −2.2E+01 and the Nuclei_Intensity_MADIntensity_DNA t-statistics [1] was 4.7E+00. For the same molecule, the Nuclei_Intensity_MADIntensity_Mito t-statistics [1] was 1.2E+01, the Nuclei_Intensity_MassDisplacement_AGP t-statistics [1] was 1.9E+01 and the Nuclei_Intensity_MassDisplacement_DNA t-statistics [1] was 6.2E+01. It also gave a Nuclei_Intensity_MassDisplacement_Lipid t-statistics [1] of 2.6E+01, a Nuclei_Intensity_MassDisplacement_Mito t-statistics [1] of 1.2E+01 and a Nuclei_Intensity_MaxIntensityEdge_AGP t-statistics [1] of −8.0E+00. It also gave a Nuclei_Intensity_MaxIntensityEdge_DNA t-statistics [1] of −1.3E+01, a Nuclei_Intensity_MaxIntensityEdge_Mito t-statistics [1] of 3.3E+00 and a Nuclei_Intensity_MaxIntensity_AGP t-statistics [1] of −1.6E+01. For the same molecule, the Nuclei_Intensity_MaxIntensity_Mito t-statistics [1] was 3.5E+00, the Nuclei_Intensity_MeanIntensityEdge_AGP t-statistics [1] was −8.2E+00 and the Nuclei_Intensity_MeanIntensityEdge_DNA t-statistics [1] was −1.6E+01. It also gave a Nuclei_Intensity_MeanIntensityEdge_Mito t-statistics [1] of 5.2E+00, a Nuclei_Intensity_MeanIntensity_AGP t-statistics [1] of −1.6E+01 and a Nuclei_Intensity_MeanIntensity_DNA t-statistics [1] of −9.5E+00. The Nuclei_Intensity_MeanIntensity_Lipid t-statistics [1] was −4.6E+00, the Nuclei_Intensity_MeanIntensity_Mito t-statistics [1] was 7.8E+00 and the Nuclei_Intensity_MedianIntensity_AGP t-statistics [1] was −1.7E+01. The Nuclei_Intensity_MedianIntensity_DNA t-statistics [1] was −1.3E+01, the Nuclei_Intensity_MedianIntensity_Lipid t-statistics [1] was −4.5E+00 and the Nuclei_Intensity_MedianIntensity_Mito t-statistics [1] was 8.9E+00. For the same molecule, the Nuclei_Intensity_MinIntensityEdge_AGP t-statistics [1] was −7.5E+00, the Nuclei_Intensity_MinIntensityEdge_DNA t-statistics [1] was −1.6E+01 and the Nuclei_Intensity_MinIntensityEdge_Lipid t-statistics [1] was −8.5E+00. The Nuclei_Intensity_MinIntensityEdge_Mito t-statistics [1] was 3.0E+00, the Nuclei_Intensity_MinIntensity_AGP t-statistics [1] was −7.8E+00 and the Nuclei_Intensity_MinIntensity_DNA t-statistics [1] was −1.6E+01. For the same molecule, the Nuclei_Intensity_MinIntensity_Lipid t-statistics [1] was −8.6E+00, the Nuclei_Intensity_MinIntensity_Mito t-statistics [1] was 4.5E+00 and the Nuclei_Intensity_StdIntensityEdge_AGP t-statistics [1] was −7.5E+00. The Nuclei_Intensity_StdIntensityEdge_DNA t-statistics [1] was −1.0E+01, the Nuclei_Intensity_StdIntensityEdge_Lipid t-statistics [1] was 6.3E+00 and the Nuclei_Intensity_StdIntensityEdge_Mito t-statistics [1] was 5.2E+00. For the same molecule, the Nuclei_Intensity_StdIntensity_AGP t-statistics [1] was −1.8E+01, the Nuclei_Intensity_StdIntensity_DNA t-statistics [1] was 3.5E+00 and the Nuclei_Intensity_StdIntensity_Mito t-statistics [1] was 6.1E+00. The Nuclei_Intensity_UpperQuartileIntensity_AGP t-statistics [1] was −1.8E+01, the Nuclei_Intensity_UpperQuartileIntensity_DNA t-statistics [1] was −5.7E+00 and the Nuclei_Intensity_UpperQuartileIntensity_Lipid t-statistics [1] was −4.4E+00. For the same molecule, the Nuclei_Intensity_UpperQuartileIntensity_Mito t-statistics [1] was 8.5E+00, the Nuclei_Location_CenterMassIntensity_Y_AGP t-statistics [1] was 4.1E+00 and the Nuclei_Location_CenterMassIntensity_Y_DNA t-statistics [1] was 4.2E+00. The Nuclei_Location_CenterMassIntensity_Y_Lipid t-statistics [1] was 4.1E+00, the Nuclei_Location_CenterMassIntensity_Y_Mito t-statistics [1] was 4.2E+00 and the Nuclei_Location_Center_Y t-statistics [1] was 4.2E+00. It also gave a Nuclei_Location_MaxIntensity_Y_AGP t-statistics [1] of 4.1E+00, a Nuclei_Location_MaxIntensity_Y_DNA t-statistics [1] of 4.2E+00 and a Nuclei_Location_MaxIntensity_Y_Lipid t-statistics [1] of 4.1E+00. The Nuclei_Location_MaxIntensity_Y_Mito t-statistics [1] was 4.5E+00, the Nuclei_Neighbors_AngleBetweenNeighbors_2 t-statistics [1] was −2.2E+01 and the Nuclei_Neighbors_FirstClosestDistance_2 t-statistics [1] was −3.5E+00. The Nuclei_Neighbors_FirstClosestObjectNumber_2 t-statistics [1] was −1.2E+01, the Nuclei_Neighbors_NumberOfNeighbors_2 t-statistics [1] was 1.9E+01 and the Nuclei_Neighbors_PercentTouching_2 t-statistics [1] was 2.0E+01. For the same molecule, the Nuclei_Neighbors_SecondClosestDistance_2 t-statistics [1] was 4.5E+00, the Nuclei_Neighbors_SecondClosestObjectNumber_2 t-statistics [1] was −1.2E+01 and the Nuclei_Number_Object_Number t-statistics [1] was −1.2E+01. The “Nuclei_Radial Distribution_MeanFrac_Mito_3of4 t-statistics” value [1] was 2.6E+01, the Nuclei_RadialDistribution_FracAtD_AGP_3of4 t-statistics [1] was −2.7E+01 and the Nuclei_RadialDistribution_FracAtD_DNA_2of4 t-statistics [1] was 3.0E+01. For the same molecule, the Nuclei_RadialDistribution_FracAtD_Lipid_1of4 t-statistics [1] was −1.2E+01, the Nuclei_RadialDistribution_FracAtD_Mito_3of4 t-statistics [1] was 2.4E+01 and the Nuclei_RadialDistribution_MeanFrac_AGP_3of4 t-statistics [1] was −2.7E+01. It also gave a Nuclei_RadialDistribution_MeanFrac_DNA_2of4 t-statistics [1] of 3.8E+01, a Nuclei_RadialDistribution_MeanFrac_Lipid_2of4 t-statistics [1] of −7.9E+00 and a Nuclei_RadialDistribution_RadialCV_AGP_3of4 t-statistics [1] of 2.5E+01. For the same molecule, the Nuclei_RadialDistribution_RadialCV_DNA_3of4 t-statistics [1] was 9.7E+01, the Nuclei_RadialDistribution_RadialCV_Lipid_3of4 t-statistics [1] was 2.2E+01 and the Nuclei_RadialDistribution_RadialCV_Mito_2of4 t-statistics [1] was 3.7E+01. For the same molecule, the Nuclei_Texture_AngularSecondMoment_AGP_10_02 t-statistics [1] was 1.2E+01, the Nuclei_Texture_AngularSecondMoment_DNA_20_03 t-statistics [1] was 9.4E+00 and the Nuclei_Texture_AngularSecondMoment_Lipid_5_03 t-statistics [1] was 4.2E+00. The Nuclei_Texture_AngularSecondMoment_Mito_5_02 t-statistics [1] was −1.8E+01, the Nuclei_Texture_Contrast_AGP_10_03 t-statistics [1] was −1.8E+01 and the Nuclei_Texture_Contrast_DNA_5_01 t-statistics [1] was 5.8E+00. It also gave a Nuclei_Texture_Contrast_Lipid_20_02 t-statistics [1] of 4.3E+00, a Nuclei_Texture_Contrast_Mito_5_03 t-statistics [1] of 6.8E+00 and a Nuclei_Texture_Correlation_AGP_10_03 t-statistics [1] of 3.0E+01. The Nuclei_Texture_Correlation_DNA_10_00 t-statistics [1] was −1.6E+01, the Nuclei_Texture_Correlation_Lipid_5_03 t-statistics [1] was 2.3E+01 and the Nuclei_Texture_Correlation_Mito_5_02 t-statistics [1] was 1.5E+01. The Nuclei_Texture_DifferenceEntropy_AGP_10_00 t-statistics [1] was −2.1E+01, the Nuclei_Texture_DifferenceEntropy_DNA_10_03 t-statistics [1] was −8.0E+00 and the Nuclei_Texture_DifferenceEntropy_Lipid_20_01 t-statistics [1] was 8.2E+00. It also gave a Nuclei_Texture_DifferenceEntropy_Mito_20_00 t-statistics [1] of 8.0E+00, a Nuclei_Texture_DifferenceVariance_AGP_10_00 t-statistics [1] of 1.4E+01 and a Nuclei_Texture_DifferenceVariance_DNA_20_03 t-statistics [1] of 7.3E+00. The Nuclei_Texture_DifferenceVariance_Lipid_20_00 t-statistics [1] was 5.6E+00, the Nuclei_Texture_DifferenceVariance_Mito_10_00 t-statistics [1] was −8.1E+00 and the Nuclei_Texture_Entropy_AGP_5_00 t-statistics [1] was −1.7E+01. It also gave a Nuclei_Texture_Entropy_DNA_10_03 t-statistics [1] of −7.7E+00, a Nuclei_Texture_Entropy_Lipid_20_01 t-statistics [1] of 7.3E+00 and a Nuclei_Texture_Entropy_Mito_5_02 t-statistics [1] of 1.3E+01. It also gave a Nuclei_Texture_InfoMeas1_AGP_10_03 t-statistics [1] of 2.6E+01, a Nuclei_Texture_InfoMeas1_Lipid_20_03 t-statistics [1] of −8.6E+00 and a Nuclei_Texture_InfoMeas2_DNA_10_03 t-statistics [1] of −1.3E+01. The Nuclei_Texture_InfoMeas2_Mito_5_01 t-statistics [1] was 1.3E+01, the Nuclei_Texture_InverseDifferenceMoment_AGP_10_00 t-statistics [1] was 2.1E+01 and the Nuclei_Texture_InverseDifferenceMoment_DNA_20_03 t-statistics [1] was 1.5E+01. It also gave a Nuclei_Texture_InverseDifferenceMoment_Lipid_20_00 t-statistics [1] of 7.5E+00, a Nuclei_Texture_InverseDifferenceMoment_Mito_10_00 t-statistics [1] of −1.4E+01 and a Nuclei_Texture_SumAverage_AGP_10_00 t-statistics [1] of −1.8E+01. The Nuclei_Texture_SumAverage_DNA_10_01 t-statistics [1] was −1.8E+01, the Nuclei_Texture_SumAverage_Lipid_10_00 t-statistics [1] was −6.6E+00 and the Nuclei_Texture_SumAverage_Mito_20_00 t-statistics [1] was 8.5E+00. The Nuclei_Texture_SumEntropy_AGP_5_00 t-statistics [1] was −1.9E+01, the Nuclei_Texture_SumEntropy_DNA_10_03 t-statistics [1] was −7.8E+00 and the Nuclei_Texture_SumEntropy_Lipid_20_01 t-statistics [1] was 8.0E+00. For the same molecule, the Nuclei_Texture_SumEntropy_Mito_5_02 t-statistics [1] was 1.1E+01, the Nuclei_Texture_SumVariance_AGP_10_03 t-statistics [1] was −1.7E+01 and the Nuclei_Texture_SumVariance_DNA_5_02 t-statistics [1] was 6.2E+00. The Nuclei_Texture_SumVariance_Lipid_20_01 t-statistics [1] was 6.0E+00, the Nuclei_Texture_SumVariance_Mito_5_02 t-statistics [1] was 7.3E+00 and the Nuclei_Texture_Variance_AGP_10_03 t-statistics [1] was −1.8E+01. It also gave a Nuclei_Texture_Variance_DNA_5_00 t-statistics [1] of 5.8E+00, a Nuclei_Texture_Variance_Lipid_20_00 t-statistics [1] of 4.7E+00 and a Nuclei_Texture_Variance_Mito_5_02 t-statistics [1] of 6.9E+00. For the same molecule, the “BODIPY Texture Entropy” value (PHH, 5 mM metformin for 24h, p 6.98e-04) was “difference”, the “mitochondrial membrane potential (Mito MeanIntensity)” value (PHH, 5 mM metformin for 24h, p 0.0104) was “increased” and the “cell size (AreaShape MinorAxislength)” value (PHH, 5 mM metformin for 24h, p=3.11e-12) was “smaller”. For the same molecule, the “cell size (AreaShape Area)” value (PHH, 5 mM metformin for 24h, p=3.87e-11) was “smaller”, the “lipid droplet number (LargeBODIPYObjects_Count)” value (PHH, 5 mM metformin for 24h, p=2.37e-07) was “reduced” and the “lipid content (BODIPY MeanIntensity)” value (PHH, 5 mM metformin for 24h, p=6.11e-06) was “reduced”. For the same molecule, the “mitochondrial fusion (Mito Texture_angularSecondMoment, Mito Texture Entropy, Mito Texture_InfoMeas1)” value (PHH, 5 mM metformin for 24h, p=7.58e-05, p=6.66e-06, p=2.17e-12) was “increased”, the “appearance of the cytoskeleton, Golgi and plasma membrane (AGP Texture_AngularSecondMoment)” value (PHH) was “less uniform” and the “appearance of the cytoskeleton, Golgi and plasma membrane (AGP Texture_AngularSecondMoment)” value (PHH, listed as Metformin) was “reduced cytoskeletal randomness”.

From US20240398989A1, “METHODS AND COMPOSITIONS FOR DIAGNOSIS AND TREATMENT OF METABOLIC DISORDERS” (The Broad Institute, Inc., priority 2021, published 2024)
